What was measured:
[1] = test system: antibodies in sera from SARS patients (sera 1a, 1b, 2, 6, 37, 62, London, SARS-yellow, SARS-green); assay type: binding, human; set-up: Binding of serum 6 to linear peptides of protein X1 of SARS-CoV Urbani / Binding of serum 37 to linear peptides of protein X1 of SARS-CoV Urbani / Binding of serum 6 to looped/cyclic peptide (PEPSCAN-ELISA) / Binding of serum 37 to looped/cyclic peptide (PEPSCAN-ELISA) / Binding of serum 37 to looped/cyclic peptides of protein X1 of SARS-CoV Urbani / Binding of serum 6 to linear peptides of protein X2 / Binding of serum 37 to linear peptides of protein X2 / Binding of serum 37 to looped/cyclic peptides of protein X2 of SARS-CoV Urbani / Binding of serum 6 to linear peptides of protein M of SARS-CoV Urbani / Binding of serum 37 to linear peptides of protein M of SARS-CoV Urbani / Binding of serum 6 to looped/cyclic peptides of protein M of SARS-CoV Urbani / Binding of serum 37 to looped/cyclic peptides of protein M of SARS-CoV Urbani / Binding of serum 6 to linear peptides of protein X3 of SARS-CoV Urbani / Binding of serum 37 to linear peptides of protein X3 of SARS-CoV Urbani / Binding of serum 37 to looped/cyclic peptides of protein X3 of SARS-CoV Urbani / Binding of serum 6 to linear peptides of protein X4 of SARS-CoV Urbani / Binding of serum 37 to linear peptides of protein X4 of SARS-CoV Urbani / Binding of serum 37 to looped/cyclic peptides of protein X4 of SARS-CoV Urbani / Binding of serum 6 to linear peptides of protein X5 of SARS-CoV Urbani / Binding of serum 37 to linear peptides of protein X5 of SARS-CoV Urbani / Binding of serum 37 to looped/cyclic peptides of protein X5 of SARS-CoV Urbani / Binding of serum 6 to linear peptides of protein N of SARS-CoV Urbani / Binding of serum 37 to linear peptides of protein N of SARS-CoV Urbani / Binding of serum 6 to linear peptide (PEPSCAN-ELISA) / Binding of serum 1a to looped/cyclic peptides of protein N of SARS-CoV Urbani / Binding of serum 1b to looped/cyclic peptides of protein N of SARS-CoV Urbani / Binding of serum 2 to looped/cyclic peptides of protein N of SARS-CoV Urbani / Binding of serum 6 to looped/cyclic peptides of protein N of SARS-CoV Urbani / Binding of serum 37 to looped/cyclic peptides of protein N of SARS-CoV Urbani / Binding of serum 62 to looped/cyclic peptides of protein N of SARS-CoV Urbani / Binding of serum London to looped/cyclic peptides of protein N of SARS-CoV Urbani / Binding of serum SARS-green to looped/cyclic peptides of protein N of SARS-CoV Urbani: unit not given here
[2] = test system: control sera (pooled serum of ten healthy LUMC hospital workers; commercial negative donor pooled serum from the Dutch bloodbank); assay type: binding, human; set-up: Binding of Control serum LUMC to linear peptides / Binding of Control serum Blood-bank to linear peptides / Binding of Control serum LUMC to looped peptides / Binding of Control Serum Blood-Bank to Looped peptides / Binding of Control serum LUMC to linear peptides of the protein M of SARS-CoV Urbani / Binding of Control serum Blood-bank to linear peptides of the protein M of SARS-CoV Urbani / Binding of Control serum LUMC to looped peptides of the protein M of SARS-CoV Urbani / Binding of Control Serum Blood-Bank to Looped peptides of the protein M of SARS-CoV Urbani: unit not given here
[3] = test system: rabbit serum obtained by immunizing a rabbit with the SARS-CoV strain Frankfurt 1; assay type: binding; set-up: Binding of a rabbit serum to linear peptides / Binding of a rabbit serum to looped peptides / Rabbit serum linear peptides / Rabbit serum looped peptides / Binding of a rabbit serum to linear peptides of protein N of SARS-CoV Urbani (Rabbit serum linear peptides) / Binding of a rabbit serum to looped/cyclic peptides of protein N of SARS-CoV Urbani (Rabbit serum looped peptides): unit not given here
[4] = test system: recombinant human anti-SARS-CoV antibody 03-018; assay type: binding; set-up: Binding of antibody 03-018 to linear peptides of the N protein of SARS-CoV Urbani / Binding of antibody 03-018 to looped/cyclic peptides of the N protein of SARS-CoV Urbani: unit not given here
[5] = molecular target: SARS-CoV preparation (Frankfurt 1 strain) (SARS-CoV strain Frankfurt 1)

Molecule	Binding of serum 1a to linear peptides of protein N of SARS-CoV Urbani [1]	Binding of serum 1a to looped/cyclic peptides of protein N of SARS-CoV Urbani [1]	Binding of serum 1b to linear peptides of protein N of SARS-CoV Urbani [1]	Binding of serum 1b to looped/cyclic peptides of protein N of SARS-CoV Urbani [1]	Binding of serum 2 to linear peptides of protein N of SARS-CoV Urbani [1]	Binding of serum 2 to looped/cyclic peptides of protein N of SARS-CoV Urbani [1]	Binding of serum 6 to linear peptides of protein N of SARS-CoV Urbani [1]	Binding of serum 6 to looped/cyclic peptides of protein N of SARS-CoV Urbani [1]	Binding of serum 37 to linear peptides of protein N of SARS-CoV Urbani [1]	Binding of serum 37 to looped/cyclic peptides of protein N of SARS-CoV Urbani [1]	Binding of serum 62 to linear peptides of protein N of SARS-CoV Urbani [1]	Binding of serum 62 to looped/cyclic peptides of protein N of SARS-CoV Urbani [1]	Binding of serum London to linear peptides of protein N of SARS-CoV Urbani [1]	Binding of serum London to looped/cyclic peptides of protein N of SARS-CoV Urbani [1]	Binding of serum SARS-green to linear peptides of protein N of SARS-CoV Urbani [1]	Binding of serum SARS-green to looped/cyclic peptides of protein N of SARS-CoV Urbani [1]	Binding of serum SARS-yellow to linear peptides of protein N of SARS-CoV Urbani [1]	Binding of serum SARS-yellow to looped/cyclic peptides of protein N of SARS-CoV Urbani [1]	Binding of a rabbit serum to linear peptides of protein N of SARS-CoV Urbani (Rabbit serum linear peptides) [3]	Binding of a rabbit serum to looped/cyclic peptides of protein N of SARS-CoV Urbani (Rabbit serum looped peptides) [3]	also measured
YKTFPPTEPKKDKKK	0.2	0.2	0.1	0.1	0.5	0.1	0.2	0.0	0.7	0.4	0.7	0.2	0.5	0.3	0.2	0.0	0.8	0.2	0.2	0.2	Control Serum Blood-Bank Looped peptides [2]: 0.3; Control serum Blood-bank linear peptides [2]: 0.7; Control serum LUMC linear peptides [2]: 0.6; Control serum LUMC looped peptides [2]: 0.3; Binding of antibody 03-018 to linear peptides of the N protein of SARS-CoV Urbani [4]: 0.1; Binding of antibody 03-018 to looped/cyclic peptides of the N protein of SARS-CoV Urbani [4]: 0.2
YLGTGPEASLPYGAN	0.2	0.4	0.1	0.3	0.2	0.4	0.2	0.2	0.7	0.8	0.6	0.7	0.5	0.5	0.3	0.6	0.6	0.6	0.1	0.6	Binding of Control Serum Blood-Bank to Looped peptides [2]: 0.7; Binding of Control serum Blood-bank to linear peptides [2]: 0.6; Binding of Control serum LUMC to linear peptides [2]: 0.8; Binding of Control serum LUMC to looped peptides [2]: 0.7; Binding of antibody 03-018 to linear peptides of the N protein of SARS-CoV Urbani [4]: 0.1; Binding of antibody 03-018 to looped/cyclic peptides of the N protein of SARS-CoV Urbani [4]: 0.2
YYLGTGPEASLPYGA	0.3	0.4	0.2	0.4	0.2	0.4	0.2	0.3	0.7	0.9	0.7	0.7	0.4	0.5	0.2	0.5	0.8	0.7	0.1	0.5	Binding of Control Serum Blood-Bank to Looped peptides [2]: 0.8; Binding of Control serum Blood-bank to linear peptides [2]: 0.7; Binding of Control serum LUMC to linear peptides [2]: 0.7; Binding of Control serum LUMC to looped peptides [2]: 0.8; Binding of antibody 03-018 to linear peptides of the N protein of SARS-CoV Urbani [4]: 0.1; Binding of antibody 03-018 to looped/cyclic peptides of the N protein of SARS-CoV Urbani [4]: 0.2
YYRRATRRVRGGDGK	0.3	0.2	0.1	0.1	0.3	0.2	0.3	0.1	0.7	0.4	0.6	0.2	0.5	0.2	0.3	0.0	0.5	0.1	0.2	0.0	Binding of Control Serum Blood-Bank to Looped peptides [2]: 0.3; Binding of Control serum Blood-bank to linear peptides [2]: 0.6; Binding of Control serum LUMC to linear peptides [2]: 0.6; Binding of Control serum LUMC to looped peptides [2]: 0.2; Binding of antibody 03-018 to linear peptides of the N protein of SARS-CoV Urbani [4]: 0.1; Binding of antibody 03-018 to looped/cyclic peptides of the N protein of SARS-CoV Urbani [4]: 0.2
SC03-012 (scFv) scFv: AMAQVQLVQSGAEVKKPGASVKVSCKASGYTFTSYGISWVRQAPGQGLEWMGWISAYNGNTNYAQKLQGRVTMTTDTSTSTAYMELSSLRSDDTAVYYCARMFRKSSFDSWGQGTLVTVSRGGGGSGGGGSGGGGSSELTQDPAVSVALGQTVRITCQGDSLRSYYASWYQQKPGQAPVLVIYGKNNRPSGIPDRFSGSSSGNTASLTITGAQAEDEADYYCNSRDSSGNHVVFGGGTKLTVLGAAA																					OD492nm [5]: 0.495 OD492nm

From patent publication US20070128217A1 (priority 2003, published 2007)
